This note sets out measurements from patent US6806265B2, “Non-nucleoside reverse transcriptase inhibitors” (priority 2002, dated 2004).

Like-named read-outs stand apart in the source and are kept apart here. Bounds are passed on as bounds.

In assay [1] the target is T1, HIV-1 RT double mutant K103N/Y181C (Human immunodeficiency virus type 1 group M subtype B, UniProt P03366, K702N/Y780C).
T1 construct: HIV-1 wild type reverse transcriptase as well as the clinically significant double mutant K103N/Y181C
In words: biochemical. The procedure:
(§1) Utilizing the Reverse Transcriptase (RT) Assay described below, compounds were tested for their ability to inhibit the RNA-dependent DNA polymerase activity of HIV-1 RT. Certain specific compounds described in the Examples and in Tables 1-4, were so tested. The results of this testing appear in Table 5 as ranges of IC50 (nM) and EC50 (nM).
(§2) Reverse Transcriptase (RT) Assays

In assay [2] the target is T2, HIV-1 wild type reverse transcriptase (Human immunodeficiency virus type 1 group M subtype B, UniProt P03366).
T2 construct: HIV-1 wild type reverse transcriptase
As to the kind of experiment: biochemical. To be noted: wild type RT; read-out: IC50 WT RT. The procedure: as §1, §2

In assay [3] the test system is HIV-1 double mutant K103N/Y181C. As to the kind of experiment: microbe, parasite or virus in culture. The format is cell-based.
The test system of another assay is HIV-1 wild type. As to the kind of experiment: microbe, parasite or virus in culture. The format is cell-based.
[4] abbreviates: Human immunodeficiency virus 1, read-out: EC50 K103N/Y181C (nM).
The mark [5] stands for this setting: Human immunodeficiency virus 1, wild type, read-out: EC50 WT RT.
Where [6] appears, read: RT double mutant K103N/Y181C, read-out: IC50 K103N/Y181C.
Setting [7] is: double mutant K103N/Y181C, read-out: EC50 K103N/Y181C.
Setting [8] is: wild type, read-out: EC50 WT RT.
The mark [9] stands for this setting: Human immunodeficiency virus 1, read-out: EC50 WT RT (nM).

As to `CCN1c2ncc(CCOc3ccc(C(=O)NC(C)(C)C(=O)O)cc3C)cc2C(=O)N(C)c2cccnc21` [Entry 4012], the values for the IC50 in assay [1] and in assay [2] were 50 to 100 nM and less than 50 nM, respectively. Besides, the EC50 is more than 50 nM in assay [3] (setting [4]) and 10 to 50 nM with HIV-1 wild type (setting [5]).

Consider `CCN1c2ncc(CCOc3ccc(-c4ccncc4)cc3)cc2C(=O)N(C)c2cccnc21` [Entry 1090, 11-Ethyl-5,11-dihydro-5-methyl-8-{2-[4-(4-pyridinyl)phenoxy]ethyl}-6H-dipyrido[3,2-b:2′,3′-e][1,4]diazepin-6-one], for which the IC50 in assay [1] is 50 to 100 nM; in assay [2] it was less than 50 nM. Also, the EC50 was 10 to 50 nM in assay [3] (setting [4]) and less than 10 nM in the assay with HIV-1 wild type (setting [5]).

As for `Cc1cc(-c2ccc(CC(=O)O)cc2)ccc1OCCc1cnc2c(c1)C(=O)N(C)c1cccnc1N2` [Entry 1059], the IC50 is more than 100 nM in assay [1] (setting [6]) and less than 50 nM in assay [2]. In addition, the EC50 is more than 50 nM in assay [3] (setting [7]) and less than 10 nM with HIV-1 wild type (setting [8]).

On to `CCN1c2ncc(CCOc3ccc(NC(=O)CC(C)(C)C(=O)O)cc3C)cc2C(=O)N(C)c2cccnc21` [Entry 4008], for which the IC50 in assay [1] was more than 100 nM; in assay [2] it was less than 50 nM. Besides, the EC50 in assay [3] (setting [4]) was 10 to 50 nM; in the assay on HIV-1 wild type (setting [5]) it was less than 10 nM.

For `CCN1c2ncc(CCOc3ccc(NC(=O)CC4(C(=O)O)CCCC4)cc3C)cc2C(=O)N(C)c2cccnc21` [Entry 4007], the IC50 was more than 100 nM in assay [1] and less than 50 nM in assay [2]. Also, the EC50 (in assay [3] (setting [4]); in the assay with HIV-1 wild type (setting [5])) was less than 10 nM each time.

Regarding `CCN1c2ncc(CCOc3ccc(NC(=O)CCC(=O)O)cc3C)cc2C(=O)N(C)c2cccnc21` [Entry 4006], the figures for the IC50 in assay [1] and in assay [2] were 50 to 100 nM and less than 50 nM, respectively. Further, the results for the EC50 (in assay [3] (setting [4]); with HIV-1 wild type (setting [5])) were more than 50 nM and 10 to 50 nM, respectively.

On to `CCN1c2ncc(CCOc3ccc(-c4ccc(N)c(C(=O)O)c4)cc3C)cc2C(=O)N(C)c2cccnc21` [Entry 1034, 4-Amino-4′-[2-(11-ethyl-6,11-dihydro-5-methyl-6-oxo-5H-dipyrido[3,2-b:2′,3′-e][1,4]diazepin-8-yl)ethoxy]-3′-methyl-[1,1′-biphenyl]-3-carboxylic acid], for which the IC50 in assay [1] and in assay [2] was less than 50 nM each time. Moreover, the EC50 (in assay [3] (setting [4]); with HIV-1 wild type (setting [9])) was less than 10 nM in each case.

`CCN1c2ncc(CCOc3ccc(-c4cc(C(=O)O)c(C)o4)cc3)cc2C(=O)N(C)c2cccnc21` [Entry 1047, 5-{4-[2-(11-Ethyl-6,11-dihydro-5-methyl-6-oxo-5H-dipyrido[3,2-b:2′,3′-e][1,4]diazepin-8-yl)ethoxy]phenyl}-2-methyl-3-furanecarboxylic acid]: the IC50 in assay [1] was more than 100 nM; in assay [2], less than 50 nM. Besides, the EC50 in assay [3] (setting [4]) was more than 50 nM; in the assay on HIV-1 wild type (setting [5]), 10 to 50 nM.

With `CCN1c2ncc(CCOc3ccc(-c4cn(C)cn4)cc3C)cc2C(=O)N(C)c2cccnc21` [Entry 1095, 11-Ethyl-5,11-dihydro-5-methyl-8-{2-[2-methyl-4-(1-methyl-1H-imidazol-4-yl)phenoxy]ethyl}-6H-dipyrido[3,2-b:2′,3′-e][1,4]diazepin-6-one], the IC50 in assay [1] and in assay [2] was less than 50 nM throughout. For the same compound, the EC50 (in assay [3] (setting [4]); in the assay on HIV-1 wild type (setting [5])) was less than 10 nM each time.

As for `CCN1c2ncc(CCOc3ccc(Nc4ccc(C(=O)O)cc4)cc3C)cc2C(=O)N(C)c2cccnc21` [Entry 3022, 4-{{4-[2-(11-Ethyl-6,11-dihydro-5-methyl-6-oxo-5H-dipyrido[3,2-b:2′,3′-e][1,4]diazepin-8-yl)ethoxy]-3-methylphenyl}amino}benzoic acid], the IC50 in assay [1] and in assay [2] was less than 50 nM each time. For the same compound, the EC50 in assay [3] (setting [4]) was 10 to 50 nM; in the assay on HIV-1 wild type (setting [9]), less than 10 nM.

For the compound `CCN1c2ncc(CCOc3ccc(C(=O)Nc4ccc[n+]([O-])c4)cc3C)cc2C(=O)Nc2c(C)ccnc21` [Entry 3020], the IC50 in assay [1] (setting [6]) and in assay [2] was less than 50 nM throughout. Moreover, the EC50 (in assay [3] (setting [7]); in the assay with HIV-1 wild type (setting [8])) was less than 10 nM in each case.

On to `CCN1c2ncc(CCOc3ccc(C(=O)Nc4ccc(CC(=O)O)cc4)cc3C)cc2C(=O)Nc2c(C)ccnc21` [Entry 3018], for which the IC50 in assay [1] and in assay [2] was less than 50 nM in each case. In addition, the values for the EC50 (in assay [3] (setting [4]); in the assay with HIV-1 wild type (setting [9])) were more than 50 nM and 10 to 50 nM, respectively.

For `CCN1c2ncc(CCOc3ccc(C(=O)Nc4cccc(CC(=O)O)c4)cc3C)cc2C(=O)N(C)c2cccnc21` [Entry 3010], the IC50 in assay [1] and in assay [2] was less than 50 nM throughout. The EC50 (in assay [3] (setting [4]); in the assay on HIV-1 wild type (setting [9])) was 10 to 50 nM throughout.

Turning to `CCN1c2ncc(CCOc3ccc(-c4ccc(C(=O)O)cc4)cc3F)cc2C(=O)N(C)c2cccnc21` [Entry 1004], the figures for the IC50 in assay [1] (setting [6]) and in assay [2] were more than 100 nM and less than 50 nM, respectively. Also, the EC50 in assay [3] (setting [7]) was more than 50 nM; with HIV-1 wild type (setting [8]) it was less than 10 nM.

Take `CCN1c2ncc(CCOc3ccc(-c4cc(C(=O)O)on4)cc3C)cc2C(=O)N(C)c2cccnc21` [Entry 1041, 3-{4-[2-(11-Ethyl-6,11-dihydro-5-methyl-6-oxo-5H-dipyrido[3,2-b:2′,3′-e][1,4]diazepin-8-yl)ethoxy]-3-methylphenyl}-5-isoxazolecarboxylic acid]: the IC50 in assay [1] and in assay [2] was less than 50 nM in each case. Further, the EC50 (in assay [3] (setting [4]); with HIV-1 wild type (setting [5])) was more than 50 nM each time.

Turning to `CCN1c2ncc(CCOc3ccc(-c4ccc(CC(=O)O)cc4)cc3C)cc2C(=O)N(C)c2cccnc21` [Entry 1008], the IC50 in assay [1] (setting [6]) and in assay [2] was less than 50 nM each time. Besides, the EC50 (in assay [3] (setting [7]); in the assay on HIV-1 wild type (setting [8])) was less than 10 nM in each case.

`CCN1c2ncc(CCOc3ccc(C(=O)NNC)cc3C)cc2C(=O)N(C)c2cccnc21` [Entry 4016]: the IC50 in assay [1] and in assay [2] was less than 50 nM each time. Further, the EC50 (in assay [3] (setting [4]); with HIV-1 wild type (setting [5])) was less than 10 nM throughout.

For the compound `CCN1c2ncc(CCOc3ccc(-c4ccc(CC(=O)O)cc4)cc3)cc2C(=O)N(C)c2cccnc21` [Entry 1007], the results for the IC50 in assay [1] (setting [6]) and in assay [2] were 50 to 100 nM and less than 50 nM, respectively. For the same compound, the EC50 in assay [3] (setting [7]) is more than 50 nM; in the assay on HIV-1 wild type (setting [8]) it was 10 to 50 nM.
